Results as given in patent US4197286A, “Testosterone derivatives and assay method” (Southwest Research Institute, priority 1977, dated 1980).

Tested on: anti-testosterone serum from rabbit No. X-181
Assay: Cross-reactivity of structurally similar steroids with the anti-testosterone serum
Type: binding
Conditions: antiserum of rabbit X-181; testosterone = 100
Method: Also, the cross-reactivity of pertinent and structurally similar steroids was determined to be as follows:

Row | SMILES | % CROSS-REACTIVITY
1 | C[C@]12CC[C@H](O)CC1=CC[C@@H]1[C@@H]2CC[C@]2(C)C(=O)CC[C@@H]12 [Dehydroepiandrosterone] | 0.00%
2 | C[C@]12CCC(=O)C[C@H]1CC[C@@H]1[C@@H]2CC[C@]2(C)C(=O)CC[C@@H]12 [5β-Androstane-3,17-dione] | 0.00%
3 | C[C@]12C[C@H](O)[C@H]3[C@@H](CCC4=CC(=O)CC[C@@]43C)[C@@H]1CC[C@@H]2O [11β-Hydroxytestosterone] | 0.00%
4 | C[C@]12CC[C@H]3[C@@H](CCC4=CC(=O)CC[C@@]43C)[C@@H]1CC[C@@H]2O [Testosterone] | 100.00%
5 | C[C@]12CCC(=O)C=C1CC[C@@H]1[C@@H]2[C@@H](O)C[C@]2(C)C(=O)CC[C@@H]12 [11β-Hydroxyandrostenodione] | 0.00%
6 | C[C@]12CCC(=O)C=C1CC[C@@H]1[C@@H]2CC[C@]2(C)C(=O)CC[C@@H]12 [Androstenedione] | 0.90%
7 | C[C@]12CC[C@H]3[C@@H](C[C@H](O)C4=CC(=O)CC[C@@]43C)[C@@H]1CC[C@@H]2O [6α-Hydroxytestosterone] | 0.75%
8 | C[C@]12CC[C@@H](O)C[C@@H]1CC[C@@H]1[C@@H]2CC[C@]2(C)[C@@H](O)CC[C@@H]12 [5α-Androstane-3α, 17β-diol] | 0.00%
9 | C[C@]12CCC(=O)C[C@H]1CC[C@@H]1[C@@H]2CC[C@]2(C)[C@@H](O)CC[C@@H]12 [5β-Dihydrotestosterone] | 0.63%
10 | C[C@]12CC[C@H]3[C@@H](CCC4=CC(=O)CC[C@@]43C)[C@@H]1CC[C@@H]2C(=O)CO [Deoxycorticosterone] | 0.00%
11 | CC(=O)[C@H]1CC[C@H]2[C@@H]3CCC4=CC(=O)CC[C@]4(C)[C@H]3CC[C@]12C [Progesterone] | 0.00%
12 | C[C@]12CC[C@@H](O)C[C@@H]1CC[C@@H]1[C@@H]2CC[C@]2(C)C(=O)CC[C@@H]12 [Androsterone] | 0.00%
13 | C[C@]12C[C@H](O)[C@H]3[C@@H](CCC4=CC(=O)CC[C@@]43C)[C@@H]1CC[C@@H]2C(=O)CO [Corticosterone] | 0.00%
14 | C[C@]12CC[C@@H]3c4ccc(O)cc4CC[C@H]3[C@@H]1C[C@@H](O)[C@@H]2O [Estriol] | 0.00%
15 | C[C@]12CC[C@H]3[C@@H](CC=C4C[C@@H](O)CC[C@@]43C)[C@@H]1CC[C@@H]2O [5-Androstene-3β,17β-diol] | 0.51%
16 | C[C@]12CC[C@H](O)C[C@@H]1CC[C@@H]1[C@@H]2CC[C@]2(C)C(=O)CC[C@@H]12 [Epiandrosterone] | 0.19%
17 | C[C@]12CCC(=O)C[C@@H]1CC[C@@H]1[C@@H]2CC[C@]2(C)[C@@H](O)CC[C@@H]12 [5α-Dihydrotestosterone] | 6.65%
18 | C[C@]12CC(=O)[C@H]3[C@@H](CCC4=CC(=O)CC[C@@]43C)[C@@H]1CC[C@@H]2O [11β-Oxotestosterone] | 1.80%
19 | C[C@]12CC[C@@H]3c4ccc(O)cc4CC[C@H]3[C@@H]1CCC2=O [Estrone] | 0.00%
20 | C[C@]12CC[C@H](O)C[C@@H]1CC[C@@H]1[C@@H]2CC[C@]2(C)[C@@H](O)CC[C@@H]12 [5α-Androstane-3β,17β-diol] | 2.19%
21 | C[C@]12CC[C@@H]3c4ccc(O)cc4CC[C@H]3[C@@H]1CC[C@@H]2O [Estradiol] | 0.43%
